Data taken from ChEMBL document CHEMBL1143605, “A pharmacophore hypothesis for P-glycoprotein substrate recognition using GRIND-based 3D-QSAR” (2005).

System: MES-SA
Experiment: Inhibition of compound against MES-SA/DX5 cell line was determined using P-glycoprotein assay
Assay type: functional, Homo sapiens

| Structure (SMILES) | log10 % Pgp inhibition vs cyclosporin A |
| --- | --- |
| CN1CCN(CC/C=C2/c3ccccc3Sc3ccc(S(=O)(=O)N(C)C)cc32)CC1 [THIOTHIXENE] | 1.23 |
| CC(C)COCC(CN(Cc1ccccc1)c1ccccc1)N1CCCC1 (stereo unspecified) [BEPRIDIL] | 1.56 |
| Cc1nc2sccn2c(=O)c1CCN1CCC(=C(c2ccc(F)cc2)c2ccc(F)cc2)CC1 [RITANSERIN] | 1.69 |
| OCc1cc(C(O)CNCCCCCCOCCCCc2ccccc2)ccc1O (stereo unspecified) [SALMETEROL] | 0.83 |
| OCCN1CCN(CCCN2c3ccccc3Sc3ccc(C(F)(F)F)cc32)CC1 [FLUPHENAZINE] | 1.4 |
| C=CC1CN2CCC1CC2C(=O)c1ccnc2ccc(OC)cc12 (stereo unspecified) | 1.26 |
| CN(C)CC/C=C1/c2ccccc2Sc2ccc(Cl)cc21 [CHLORPROTHIXENE] | 1.27 |
| CCCCOc1cc(C(=O)OCCN(CC)CC)ccc1N [BENOXINATE] | 0.84 |
| C[C@H]1C[C@H]2[C@@H]3CCC4=CC(=O)C=C[C@]4(C)[C@H]3C(=O)C[C@]2(C)[C@@]1(O)C(=O)CO [MEPREDNISONE] | 0.86 |
| CCSc1ccc2c(c1)N(CCCN1CCN(C)CC1)c1ccccc1S2 [THIETHYLPERAZINE] | 1.26 |
| COc1ccc([C@@H]2Sc3ccccc3N(CCN(C)C)C(=O)[C@@H]2OC(C)=O)cc1 [DILTIAZEM] | 1.18 |
| CC(C)(C)c1ccc(C(=O)CCCN2CCC(OC(c3ccccc3)c3ccccc3)CC2)cc1 [EBASTINE] | 1.76 |
| CCN(CC)C(=O)N[C@H]1C[C@@H]2c3cccc4[nH]cc(c34)C[C@H]2N(C)C1 [TERGURIDE] | 1 |
| CC(C)/N=c1\cc2n(-c3ccc(Cl)cc3)c3ccccc3nc-2cc1Nc1ccc(Cl)cc1 [CLOFAZIMINE] | 1.8 |
| CCC(COC(=O)c1cc(OC)c(OC)c(OC)c1)(c1ccccc1)N(C)C (stereo unspecified) [TRIMEBUTINE] | 1.75 |
| CC[C@H]1CN2CCc3cc(OC)c(OC)cc3[C@@H]2C[C@@H]1C[C@H]1NCCc2cc(OC)c(OC)cc21 [EMETINE] | 0.88 |
| CN(C)C(=O)C(CCN1CCC(O)(c2ccc(Cl)cc2)CC1)(c1ccccc1)c1ccccc1 [LOPERAMIDE] | 1.58 |
| CN1CCCC(n2nc(Cc3ccc(Cl)cc3)c3ccccc3c2=O)CC1 (stereo unspecified) [AZELASTINE] | 1.75 |
| CN(C)CCOC(C)(c1ccccc1)c1ccc(Cl)cc1 (stereo unspecified) [CHLORPHENOXAMINE] | 0.91 |
| CCN(CC)CC#CCOC(=O)C(O)(c1ccccc1)C1CCCCC1 (stereo unspecified) [OXYBUTYNIN] | 1.12 |
| COc1ccc(CCN(C)CCCC(C#N)(c2ccc(OC)c(OC)c2)C(C)C)cc1OC (stereo unspecified) [VERAPAMIL] | 1.63 |
| CCCCc1oc2ccccc2c1C(=O)c1cc(I)c(OCCN(CC)CC)c(I)c1 [AMIODARONE] | 1.46 |
| CSc1ccc2c(c1)N(CCC1CCCCN1C)c1ccccc1S2 (stereo unspecified) [THIORIDAZINE] | 1.65 |
| CCc1nn(CCCN2CCN(c3cccc(Cl)c3)CC2)c(=O)n1CCOc1ccccc1 [NEFAZODONE] | 1.83 |
| CC(=O)c1ccc2c(c1)N(CCCN(C)C)c1ccccc1S2 [ACEPROMAZINE] | 0.8 |
| CC(C)(C)c1ccc(C(O)CCCN2CCC(C(O)(c3ccccc3)c3ccccc3)CC2)cc1 (stereo unspecified) [TERFENADINE] | 1.65 |
